# Earlier results, collected in patent US20170216178A1, “Cosmetic or Dermatological Composition Containing Retinaldehyde and DNA” (GALEPHAR PHARMACEUTICAL RESEARCH, INC., priority 2016, published 2017).
# What was measured:
# P. acnes = conditions: against P. acnes
# comedones = conditions: topical; compared with retinoic acid (tretinoin); rhino mouse model
# skin = conditions: topical; compared with retinoids
# skin cancer = conditions: mice
smiles,measurement,setting,value
O=C(O)CCCCCCCC(=O)O [azelaic acid],intra-follicular antibacterial activity,P. acnes,showed an intra-follicular antibacterial activity
CC1=C(/C=C/C(C)=C/C=C/C(C)=C/C=O)C(C)(C)CCC1 [retinaldehyde],comedolytic action,comedones,identical to that of retinoic acid
same,skin tolerance,skin,significantly higher skin tolerance
O=C(OOC(=O)c1ccccc1)c1ccccc1 [benzoyl peroxide],potential for the development of skin cancer,skin cancer,may increase the potential for the development of skin cancer
